Literature values in patent US20120046172A1, “METHODS FOR USE OF TRIALKYLBENZYLAMMONIUM HALIDE COMPOSITIONS AS NON-SELECTIVE TERRESTRIAL PLANT HERBICIDES” (priority 2010, published 2012).

Tests used:
wheat plants = conditions: compositions with ADBAC concentrations in the range of 0.1 to 1%; DD215228
bean plants = conditions: compositions with ADBAC concentrations in the range of 0.1 to 1%; DD215228

## alkyldimethylbenzyl ammonium chloride [ADBAC]
Wheat plants
  Effect on wheat plants: plant stunting
Bean plants
  Effect on bean plants: leaf desiccation and defoliation
